Reference: PubChem BioAssay AID179 (DTP/NCI, 2004)
Several values for one entry are separate records, joined by “and”; a condition that tells them apart may be missing. Equal values may be shown once. Activity calls are given as the source filed them.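 How the source made its calls: active means compounds giving half or more protection of infected cells from virus-caused growth loss, again on retest; inactive means the rest.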 Where a SMILES comes first, the peptide text is derived from it. [ ]: non-standard residue; d: D form. The star is where a group is joined. Ac5c = NC1(C(=O)O)CCCC1; Cbz = O=C(OCc1ccccc1)*; Boc = CC(C)(C)OC(=O)*; tBu = CC(C)(C)*

Test system: CEM cells HIV-1 protection, formazan growth assay
Experiment: NCI AIDS Antiviral Assay
Conditions: for IC50: measured here: growth of uninfected CEM cells
Procedure, shortened: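 Soluble formazan readout of cell growth; CEM cells ± HIV-1; 5 drug concs. ≥50% protection → retest; ≥50% again = moderately active; reproducible 100% = confirmed active.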

Compound	EC50 [µM]	IC50	outcome
Cc1cc(Cl)ccc1N=C1NC(=O)C(CC(=O)Nc2cccc(C)c2C)S1 (stereo not given)	> 234	66.1 µM	–
C[C@@]1(CO)[C@H](O)CC[C@@]2(C)[C@H]1CC[C@H]1C[C@@H]3C[C@@]12CC[C@@]3(O)COC(=O)CN	> 575	0.331 µM	–
Cc1ccc(S(=O)(=O)N(C)c2ccccc2)cc1	> 200	52.5 µM	–
COc1cc2c(c(OC)c1OC)-c1ccc(O)cc1C(NC(C)=O)CC2 (stereo not given)	> 2	0.0603 µM	–
O=C(CN1CCCC1=O)CS(=O)(=O)c1ccccc1	> 891	> 891 µM	–
O=c1cc(N=Nc2ccc(Cl)cc2)[nH]c(=O)[nH]1	> 2	0.851 µM	–
COc1cccc(C=C2C(=O)OC(C)(C)OC2=O)c1	–	–	inactive
CC(=O)C1=C(C)NC(C)=C(C(C)=O)C1c1cccc([N+](=O)[O-])c1	182	> 200 µM	–
C=C(CS(=O)(=O)c1ccccc1)[P+](c1ccccc1)(c1ccccc1)c1ccccc1	–	–	inactive
COC(=O)C1(NC(=O)C(Cc2ccccc2)NC(=O)C(NC(=O)C(CCCCNC(=O)OC(C)(C)C)NC(=O)C(Cc2c[nH]c3ccccc23)NC(=O)C(Cc2ccccc2)NC(=O)OCc2ccccc2)C(C)OC(C)(C)C)CCCC1 (stereo not given) (Cbz-FWK(Boc)T(tBu)F[Ac5c]-OMe; configuration not given here)	> 200	115 µM	–
Nc1c(N=Nc2ccc(/C=C/c3ccc(N=Nc4cc(S(=O)(=O)O)c5ccccc5c4N)cc3S(=O)(=O)O)c(S(=O)(=O)O)c2)cc(S(=O)(=O)O)c2ccccc12	8.71	77.6 µM	–
CN(Cc1cnc2nc(N)nc(N)c2n1)c1ccc(C(=O)NC(CCC(=O)NC(CC(P(=O)(O)O)P(=O)(O)O)C(=O)O)C(=O)O)cc1 (stereo not given)	> 100	0.219 µM	–
C=CC[P+](c1ccccc1)(c1ccccc1)c1ccccc1	> 20	0.562 µM and 0.427 µM	–
CC1=CC(O)C(Br)C(C)(C)C12CCC(C)(Cl)C(Br)C2 (stereo not given)	> 200	25.1 µM	–
CN(C)CCN(C)c1ccc2c(=O)n(CCN(C)C)c(=O)n3c4ccccc4c(=O)c1c23	> 0.2	0.11 µM	–
O=C(CCCNc1nc(-c2ccccc2)cs1)c1cccs1	> 50.1	> 50.1 µM	–
COc1ccc2[nH]c(C(O)(Cc3cccnc3)Cc3cccnc3)cc2c1	191	> 200 µM	–
COc1ccc2c(c1)O[C@H]1c3ccc(O)cc3OC[C@@H]21	–	–	inactive
CCCCCCCCCc1cc(=O)c2c(O)cc(O)cc2o1	–	–	inactive
Cc1ccc(/C(C#N)=C/c2ccccc2)cc1	> 200	28.8 µM	–

Compound	EC50 [µM]	IC50	outcome
COC(=O)[C@@H]1C(CO)[C@H](n2cc(C)c(=O)[nH]c2=O)C1(C)C (stereo not given in full)	> 437	> 437 µM	–
c1scc2c1COCCOCCOCCOCc1cscc1COCCOCCOCCOC2	> 347	> 347 µM	–
C[C@@H](CC(=O)O)OC1OC(COC(=O)C(C)(C)C)C(OC(=O)C(C)(C)C)C(OC(=O)C(C)(C)C)C1OC(=O)C(C)(C)C (stereo not given in full)	> 200	27.5 µM	–
CCOC(=O)C1(c2ccccc2)CCN(Cc2ccccc2)CC1	> 100	52.5 µM	–
O=C(O)c1ccc(S(=O)(=O)c2cccc([N+](=O)[O-])c2)cc1	> 200	> 200 µM	–
CCCCSc1ccc2n(C)c(-c3ccc(/C=N\NC(=O)c4ccc(C(=O)N/N=C\c5ccc(-c6c[n+]7cc(SCCCC)ccc7n6C)cc5)cc4)cc3)c[n+]2c1	3.24	6.31 µM	–
CC(C)C1(Cl)CCC2C3(C)CCCC(C)(C(=O)O)C3CC(Cl)C2(Cl)C1Cl (stereo not given)	> 200	41.7 µM	–
NC(=O)c1ccc(NCC2=CC(=O)C=CC2=O)cc1	> 40.7	17.4 µM	–
CCOC(=O)c1[nH]n(-c2ccccc2)c(=O)c1/C=N/C(=S)NNC(C)=O	–	138 µM	inactive
O=[N+]([O-])c1c(F)c(F)c2c(c1F)Nc1ccccc1S2	> 200	3.02 µM	–
O=C(O)C1CCC(c2ccc(Cl)cc2Cl)N1 (stereo not given)	> 200	> 200 µM	–
Cn1c(=O)[nH]c2c(c1=O)CCCS2	> 251	> 251 µM	–
CCOC(=O)CCCCCNc1nc(Cl)nc(Cl)n1	> 200	> 200 µM	–
Cc1nc(CC#N)n[nH]1	> 200	> 200 µM	–
CC(OC(C)(C)C)[C@H](NC(=O)OCC(Cl)(Cl)Cl)C(=O)O (stereo not given in full)	> 200	> 200 µM	–
CN1CCC[C@H]1C(=O)c1oc(CO)cc(=O)c1O	–	–	inactive
CCOC(CN(C)C(=O)Nc1cccc2ccccc12)OCC	> 200	178 µM	–
CCN(CC)CCOc1ccc(/C(C#N)=C/c2ccc(C(F)(F)F)cc2)cc1	> 20	1.23 µM	–
CC(=O)Nc1ccccc1S(=O)(=O)c1c(-c2c(C)c(Cl)c(C)c(Cl)c2C)noc1C	> 200	87.1 µM	–
COc1cc2nn(-c3ccccc3)nc2c2nonc12	> 200	> 200 µM	–

Compound	EC50 [µM]	IC50	outcome
S=C(S)N(Cc1ccccc1)Cc1ccccc1	> 200	24.5 µM	–
C=CCN(N=O)C(=O)N(CCC)CCCCC(NC(C)=O)C(=O)NCc1ccccc1 (stereo not given)	–	–	inactive
C#CCN1C(=O)CN2C(Cl)(Cl)C2(c2ccccc2)c2cc(Cl)ccc21 (stereo not given)	> 200	22.9 µM	–
CCN(CC)CCN1C(=O)c2cccc3cccc(c23)C1=O	> 200	9.77 µM	–
Cn1ccc2c(c1=O)C(=O)OC2(C)C	> 200	> 200 µM	–
O=C(O)[C@H](NS(=O)(=O)c1ccc([N+](=O)[O-])cc1)c1ccccc1	–	–	inactive
Cc1ccc(N2C(=O)C3C=CC(n4[nH]c(=O)n(Cc5ccccc5)c4=O)CC3C2=O)cc1 (stereo not given)	> 417	> 417 µM	–
O=C(O)CCSCc1cc(C(=O)Nc2ccc(/C=C/c3ccc(NC(=O)c4cc(CSCCC(=O)O)c5ccccc5c4O)cc3S(=O)(=O)O)c(S(=O)(=O)O)c2)c(O)c2ccccc12	83.2	162 µM	–
CCOC(=O)c1cc(Br)c(-c2cc(C)no2)[nH]1	> 200	1.48 µM	–
CC(=O)OCc1cncn1S(=O)(=O)c1ccc(C)cc1	> 200	22.9 µM	–
O=C1CC(C(COCc2ccccc2)OCc2ccccc2)CC(=O)N1 (stereo not given)	> 200	> 200 µM	–
CC1=C[P+](Cc2ccccc2)(c2ccccc2)CC1 (stereo not given)	–	186 µM and 72.4 µM	–
Cc1cc(N=Nc2ccc(Sc3ccc(N=Nc4ccc(O)c(C(=O)O)c4)cc3)cc2)c(N)c(N=Nc2ccc(N=Nc3ccc(S(=O)(=O)O)cc3)cc2)c1N	5.62	> 100 µM	–
Cc1cc2cc3ccccc3cc2c(=O)[nH]1	> 200	182 µM	–
CC(=O)OC1C(O)C(C)OC(OC2C(OC(=O)C3CCC4C(C3)OC3(CC(OC(=O)/C=C/c5ccccc5)C(C)CO3)C43CO3)OC(C)C(O)C2OC(C)=O)C1O (stereo not given)	> 1.55	0.0012 µM	–
CCOc1ccccc1NC(=O)C1=C(C)NC(C)=C(C(=O)Nc2ccccc2OCC)C1c1cccc([N+](=O)[O-])c1	> 12.9	> 12.9 µM	–
O=C(O)/C=C\SCCCC(=O)O	> 1320	> 1320 µM and 1100 µM	–
CC(C)(C)C1=C(Br)C(OC(=O)C(F)(F)F)(C(C)(C)C)OP1(=O)c1ccccc1 (stereo not given)	> 200	74.1 µM	–
Cc1occc1C(=S)Nc1ccc(Cl)c(C(=O)OC(C(C)C)C(C)C)c1	0.0912	13.2 µM	–
